Some results are limits rather than exact numbers.

The values below come from patent US20260034123A1 (Cedilla Therapeutics, Inc., priority 2022, published 2026).

One assay deals with CDK2/Cyclin E1 (Homo sapiens, UniProt P24941). The assay is described as follows: ADP-Glo Luminescent Kinase Assay (CDK2/E1-37C). In kind it is biochemical. The following applies: 0.18 nM CDK2/Cyclin E1, 100 μM ATP, Histone H1, 37° C.; read-out: ADPGLO (CDK2/E1-37C): IC50. In short, it runs like this:
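Activated CDK2/Cyclin E1 (0.18 nM final) preincubated with compound 60 min at 37 °C, then reacted with 100 μM ATP and Histone H1 ([…]) for 90 min at 37 °C in HEPES pH 7.5 buffer. ADP-Glo luminescence normalized to % activity; IC50 from four-parameter fit.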

A further assay has as its system Kuramochi cells RB-WT. The assay is described as follows: IncuCyte Kuramochi cell proliferation assay, RB-WT. To be noted: 72 hours, cell count. Type of assay: cell-based. The method in brief:
(§1)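 mApple-H2B-labelled Kuramochi cells were treated with a 10-point, half-log series (top 20 µM) and imaged at 0 and 72 h. Fluorescent nuclei were counted, and the 0–72 h fold change was normalized to DMSO wells. GI50 came from dose-response fits.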

The next assay deals with Kuramochi cells RB-KO. The assay is described as follows: IncuCyte Kuramochi cell proliferation assay, RB-KO. To be noted: 72 hours, cell count, batch mean. In kind it is cell-based. In short, it runs like this:
as §1

With `CC(C)(C(=O)N1CC2(CN(C(=O)c3cnn(Cc4ccc(F)cc4)c3)C[C@H]2COCc2cccc(-c3ccccc3C(=O)O)c2)C1)C(F)(F)F` [I′-40], the IC50 lay within 0.5 to 5 µM at CDK2/Cyclin E1, 0.5 to 5 µM with Kuramochi cells RB-WT and 5 to 10 µM with Kuramochi cells RB-KO.

Regarding `Cc1cc(N2C[C@@H](COCc3cccc(C4CCC(F)(F)CC4)c3C(=O)O)C3(CN(C(=O)C4(C(F)(F)F)CC4)C3)C2)c2scnc2c1C` [I′-41], the results for the IC50 at CDK2/Cyclin E1, in the assay on Kuramochi cells RB-WT and with Kuramochi cells RB-KO were over 10 µM, 5 to 10 µM and over 10 µM, respectively.

As for `CC1(C)C[C@@H]1C(=O)N1CC2(CN(C(=O)c3cnn(Cc4ccc(F)cc4)c3)C[C@H]2COCc2cccc(C3CCC(F)(F)CC3)c2C#N)C1` [I′-42, 2-(4,4-difluorocyclohexyl)-6-((((S)-2-((S)-2,2-dimethylcyclopropane-1-carbonyl)-6-(1-(4-fluorobenzyl)-1H-pyrazole-4-carbonyl)-2,6-diazaspiro[3.4]octan-8-yl)methoxy)methyl)benzonitrile], the IC50 on CDK2/Cyclin E1 was at most 0.5 µM; with Kuramochi cells RB-WT, 0.5 to 5 µM; in the assay on Kuramochi cells RB-KO it was 0.5 to 5 µM.

As for `CC1(C)C[C@@H]1C(=O)N1CC2(CN(C(=O)c3cnn(Cc4ccc(F)cc4)c3)C[C@H]2COCc2cccc(C3CCC(F)(F)CC3)c2-c2nn[nH]n2)C1` [I′-43, ((S)-8-(((3-(4,4-difluorocyclohexyl)-2-(2H-tetrazol-5-yl)benzyl)oxy)methyl)-2-((S)-2,2-dimethylcyclopropane-1-carbonyl)-2,6-diazaspiro[3.4]octan-6-yl)(1-(4-fluorobenzyl)-1H-pyrazol-4-yl)methanone], the IC50 on CDK2/Cyclin E1 was at most 0.5 µM; in the assay on Kuramochi cells RB-WT, at most 0.5 µM; in the assay on Kuramochi cells RB-KO, 5 to 10 µM.

`CS(=O)(=O)NC(=O)c1c(COC[C@@H]2CN(C(=O)c3cnn(Cc4ccc(F)cc4)c3)CC23CN(C(=O)C2(C(F)(F)F)CC2)C3)cccc1C1CCC(F)(F)CC1` [I′-44, (S)-2-(4,4-difluorocyclohexyl)-6-(((6-(1-(4-fluorobenzyl)-1H-pyrazole-4-carbonyl)-2-(1-(trifluoromethyl)cyclopropane-1-carbonyl)-2,6-diazaspiro[3.4]octan-8-yl)methoxy)methyl)-N-(methylsulfonyl)benzamide]: the IC50 at CDK2/Cyclin E1 was at most 0.5 µM; in the assay on Kuramochi cells RB-WT, 0.5 to 5 µM; in the assay with Kuramochi cells RB-KO, over 10 µM.

Consider `CC(C)(C(=O)N1CC2(CN(C(=O)c3cnn(Cc4cc(F)cc(F)c4)c3)C[C@H]2COCc2cccc(C3CCC(F)(F)CC3)c2C(=O)O)C1)C(F)(F)F` [I′-45, (S)-2-(((6-(1-(3,5-difluorobenzyl)-1H-pyrazole-4-carbonyl)-2-(3,3,3-trifluoro-2,2-dimethylpropanoyl)-2,6-diazaspiro[3.4]octan-8-yl)methoxy)methyl)-6-(4,4-difluorocyclohexyl)benzoic acid], for which the IC50 on CDK2/Cyclin E1 was at most 0.5 µM; in the assay with Kuramochi cells RB-WT it was 0.5 to 5 µM; in the assay on Kuramochi cells RB-KO it was over 10 µM.

With `O=C(O)c1c(/C=C/CC2CN(C(=O)c3cnn(Cc4ccc(F)cc4)c3)CC23CN(C(=O)C2(C(F)(F)F)CC2)C3)cccc1C1CCC(F)(F)CC1` (stereo not drawn) [I′-46], the IC50 on CDK2/Cyclin E1 was 0.5 to 5 µM; with Kuramochi cells RB-WT, 5 to 10 µM; in the assay with Kuramochi cells RB-KO, over 10 µM.

Turning to `CC1CCC(c2cccc(COC[C@@H]3CN(c4cc(F)c(F)c5ncsc45)CC34CN(C(=O)C(C)(C)C(F)(F)F)C4)c2C(=O)O)CC1` (stereo partly drawn) [I′-47, (S)-2-(((6-(4,5-difluorobenzo[d]thiazol-7-yl)-2-(3,3,3-trifluoro-2,2-dimethylpropanoyl)-2,6-diazaspiro[3.4]octan-8-yl)methoxy)methyl)-6-(4-methylcyclohexyl)benzoic acid], the IC50 at CDK2/Cyclin E1 was at most 0.5 µM; with Kuramochi cells RB-WT, over 10 µM; in the assay with Kuramochi cells RB-KO, over 10 µM.

Take `O=C(O)c1c(COC[C@@H]2CN(c3cc(C(F)(F)F)c(F)c4ncsc34)CC23CN(C(=O)C2(C(F)(F)F)CC2)C3)cccc1C1CCC(F)(F)CC1` [I′-48]: the values for the IC50 on CDK2/Cyclin E1, in the assay on Kuramochi cells RB-WT and in the assay with Kuramochi cells RB-KO were 5 to 10 µM, at most 0.5 µM and over 10 µM, respectively.

On to `O=C(O)c1c(COC[C@@H]2CN(c3cc(Cl)c(Cl)c4ncsc34)CC23CN(C(=O)C2(C(F)(F)F)CC2)C3)cccc1C1CCC(F)(F)CC1` [I′-49], for which the IC50 at CDK2/Cyclin E1 was 0.5 to 5 µM; with Kuramochi cells RB-WT, over 10 µM; with Kuramochi cells RB-KO, over 10 µM.

On to `O=C(O)c1c(COC[C@@H]2CN(c3cc(F)c(F)c4nc(C(F)(F)F)sc34)CC23CN(C(=O)C2(C(F)(F)F)CC2)C3)cccc1C1CCC(F)(F)CC1` [I′-50], for which the IC50 on CDK2/Cyclin E1, in the assay with Kuramochi cells RB-WT and in the assay with Kuramochi cells RB-KO was over 10 µM throughout.

As to `CC(C)(C(=O)N1CC2(CN(C(=O)c3cnn(Cc4cc(F)c(F)cc4F)c3)C[C@H]2COCc2cccc(C3CCC(F)(F)CC3)c2C(=O)O)C1)C(F)(F)F` [I′-52, (S)-2-(4,4-difluorocyclohexyl)-6-(((2-(3,3,3-trifluoro-2,2-dimethylpropanoyl)-6-(1-(2,4,5-trifluorobenzyl)-1H-pyrazole-4-carbonyl)-2,6-diazaspiro[3.4]octan-8-yl)methoxy)methyl)benzoic acid], the figures for the IC50 at CDK2/Cyclin E1, in the assay on Kuramochi cells RB-WT and in the assay with Kuramochi cells RB-KO were at most 0.5 µM, 0.5 to 5 µM and over 10 µM, respectively.

Consider `CC(C)(C(=O)N1CC2(CN(C(=O)c3cnn(Cc4cc(F)c(F)c(F)c4)c3)C[C@H]2COCc2cccc(C3CCC(F)(F)CC3)c2C(=O)O)C1)C(F)(F)F` [I′-53], for which the IC50 on CDK2/Cyclin E1 is at most 0.5 µM; in the assay with Kuramochi cells RB-WT it was 0.5 to 5 µM; in the assay with Kuramochi cells RB-KO, over 10 µM.

Take `O=C(c1cnn(Cc2ccc(F)cc2)c1)N1C[C@@H](COCc2cccc(C3CCC(F)(F)CC3)c2-c2nn[nH]n2)C2(C1)CN(C(=O)C1(C(F)(F)F)CC1)C2` [I′-54, (S)-(8-(((3-(4,4-difluorocyclohexyl)-2-(2H-tetrazol-5-yl)benzyl)oxy)methyl)-2-(1-(trifluoromethyl)cyclopropane-1-carbonyl)-2,6-diazaspiro[3.4]octan-6-yl)(1-(4-fluorobenzyl)-1H-pyrazol-4-yl)methanone]: the IC50 at CDK2/Cyclin E1 is at most 0.5 µM; with Kuramochi cells RB-WT it was 5 to 10 µM; with Kuramochi cells RB-KO, over 10 µM.

Turning to `O=C(c1cnn(Cc2ccc(F)cc2)c1)N1CC(COCc2cccc(C3CCC(F)(F)CC3)c2-c2noc(=O)[nH]2)C2(C1)CN(C(=O)C1(C(F)(F)F)CC1)C2` (stereo not drawn) [I′-55, 3-(2-(4,4-difluorocyclohexyl)-6-(((6-(1-(4-fluorobenzyl)-1H-pyrazole-4-carbonyl)-2-(1-(trifluoromethyl)cyclopropane-1-carbonyl)-2,6-diazaspiro[3.4]octan-8-yl)methoxy)methyl)phenyl)-1,2,4-oxadiazol-5(4H)-one], the IC50 was at most 0.5 µM at CDK2/Cyclin E1, 5 to 10 µM with Kuramochi cells RB-WT and over 10 µM with Kuramochi cells RB-KO.

Regarding `O=C(c1cnn(Cc2ccc(F)cc2)c1)N1CC(COCc2cccc(C3CCC(F)(F)CC3)c2C(=O)C(F)(F)F)C2(C1)CN(C(=O)C1(C(F)(F)F)CC1)C2` (stereo not drawn) [I′-56], the IC50 is over 10 µM on CDK2/Cyclin E1, 0.5 to 5 µM in the assay with Kuramochi cells RB-WT and over 10 µM with Kuramochi cells RB-KO.

For `NC(=O)c1c(COC[C@@H]2CN(C(=O)c3cnn(Cc4ccccc4C(=O)O)c3)CC23CN(C(=O)C2(C(F)(F)F)CC2)C3)cccc1C1CCC(F)(F)CC1` [I′-57, (S)-2-((4-(8-(((2-carbamoyl-3-(4,4-difluorocyclohexyl)benzyl)oxy)methyl)-2-(1-(trifluoromethyl)cyclopropane-1-carbonyl)-2,6-diazaspiro[3.4]octane-6-carbonyl)-1H-pyrazol-1-yl)methyl)benzoic acid], the IC50 on CDK2/Cyclin E1 was at most 0.5 µM; in the assay with Kuramochi cells RB-WT, 5 to 10 µM; in the assay on Kuramochi cells RB-KO, 0.5 to 5 µM.

Turning to `CC(C)(C(=O)N1CC2(CN(C(=O)c3cnn(Cc4ccc(F)c(F)c4)c3)C[C@H]2COCc2cccc(C3CCC(F)(F)CC3)c2C(=O)O)C1)C(F)(F)F` [I′-58, (S)-2-(((6-(1-(3,4-difluorobenzyl)-1H-pyrazole-4-carbonyl)-2-(3,3,3-trifluoro-2,2-dimethylpropanoyl)-2,6-diazaspiro[3.4]octan-8-yl)methoxy)methyl)-6-(4,4-difluorocyclohexyl)benzoic acid], the IC50 is at most 0.5 µM at CDK2/Cyclin E1, over 10 µM in the assay on Kuramochi cells RB-WT and over 10 µM in the assay on Kuramochi cells RB-KO.

For `NC(=O)c1c(COC[C@@H]2CN(c3cc(C(=O)O)cc4ncsc34)CC23CN(C(=O)C2(C(F)(F)F)CC2)C3)cccc1C1CCC(F)(F)CC1` [I′-59], the IC50 at CDK2/Cyclin E1 is over 10 µM; with Kuramochi cells RB-WT, 0.5 to 5 µM; in the assay with Kuramochi cells RB-KO, over 10 µM.

`O=C(O)c1c(COCC2CN(Cc3cnn(Cc4ccc(F)cc4)c3)C(=O)C23CN(C(=O)C2(C(F)(F)F)CC2)C3)cccc1C1CCC(C(F)(F)F)CC1` (stereo not drawn) [I′-60]: the IC50 on CDK2/Cyclin E1, with Kuramochi cells RB-WT and in the assay on Kuramochi cells RB-KO was over 10 µM in each case.

For the compound `O=C(O)c1c(COC[C@@H]2CN(c3cc(F)c(F)c4[nH]ccc34)CC23CN(C(=O)C2(C(F)(F)F)CC2)C3)cccc1C1CCC(F)(F)CC1` [I′-61], the IC50 on CDK2/Cyclin E1, in the assay on Kuramochi cells RB-WT and in the assay on Kuramochi cells RB-KO was over 10 µM throughout.

Turning to `O=C(O)c1c(COC[C@H]2CN(c3cc(F)c(F)c4ncsc34)CC23CN(C(=O)C2(C(F)(F)F)CC2)C3)cccc1C1CCC(F)(F)CC1` [I′-62], the IC50 on CDK2/Cyclin E1 was 0.5 to 5 µM; in the assay with Kuramochi cells RB-WT, over 10 µM; with Kuramochi cells RB-KO, over 10 µM.

On to `O=C(c1cnn(Cc2ccc(F)cc2)c1)N1CC(COCc2cccc(C3CCC(F)(F)CC3)c2-c2n[nH]c(=O)o2)C2(C1)CN(C(=O)C1(C(F)(F)F)CC1)C2` (stereo not drawn) [I′-63, 5-(2-(4,4-difluorocyclohexyl)-6-(((6-(1-(4-fluorobenzyl)-1H-pyrazole-4-carbonyl)-2-(1-(trifluoromethyl)cyclopropane-1-carbonyl)-2,6-diazaspiro[3.4]octan-8-yl)methoxy)methyl)phenyl)-1,3,4-oxadiazol-2(3H)-one], for which the figures for the IC50 at CDK2/Cyclin E1, in the assay with Kuramochi cells RB-WT and in the assay on Kuramochi cells RB-KO were at most 0.5 µM, over 10 µM and over 10 µM, respectively.
